Test results taken from patent US8192962B2, “Processes for detecting toxic substances” (Daikin Industries, Ltd., priority 2001, dated 2012).

Test system: Mitochondria-located protein genes
Assay: DNA chip mRNA expression in yeast, mitochondria-located protein genes (Table 2)
Type: cell-based, Saccharomyces cerevisiae S288C
Details: cells incubated two hours with the chemical substance
Method: Yeast (Saccharomyces cerevisiae S288C (α SUC2mal mel gap2 CUP1)) were incubated at 25° C. on YPD medium (yeast extract 1%, polypepton 2%, glucose 2%). One of toxic chemical substances was added to the cells at logarithmic growth phase, and the cells were further incubated for two hours. Cells were cultured without any chemical substance in the same condition, and were used as control. Concentrations of the chemical substances were defined to inhibit the growth of the yeast but not lead to death.
After completion of the incubation, the culture was centrifuged to collect the cells. To the cells, sodium acetate buffer (50 mM sodium acetate, 10 mM EDTA, 1% SDS) was added, and the mixture was shaken at 65° C. for five minutes, followed by returning to room temperature, and obtaining the supernatant, of which the procedures were repeated two times. To the supernatant, ½ amount of a solution of phenol/chloroform was added, and the mixture was centrifuged to give a supernatant, which was added with an equal amount of chloroform, and the mixture was centrifuged to give a supernatant. To the supernatant, an equal amount of isopropanol containing 0.3 M sodium acetate was added, and the mixture was allowed to stand at room temperature for 30 minutes, after which the mixture was centrifuged to give a sediment of the whole RNAs. Seventy % ethanol was added to the sediment, and the mixture was again centrifuged to give a sediment, which was then dried and dissolved in water. mRNA was isolated from the whole RNAs as followings. In view of the fact that a poly A chain is attached to the 3′ terminus of mRNA, a polynucleotide having a poly T structure which was immobilized on the surface of latex beads was used to trap the mRNA, and then the mRNA was washed and eluted with spine column (Oligotex-dT30<Super>mRNA Purification Kit, Takara). Reverse transcription of the mRNA was conducted with a reverse transcriptase (Super Script II Reverse Transcriptase; catalogue No. 18064-014, GibcoBRL) using fluorescence-labeled nucleotides to give cDNAs that were introduced with Cy3-dUTP or Cy5-dUTP during the reverse transcription.
The labeled cDNAs were dissolved in TE buffer (10mM Tris-HCl/1 mM EDTA, pH8.0), and the solution was dropped on the DNA chip containing the whole genes of yeast (DNA Chip Research Inc. Japan) so that the cDNAs were hybridized on the DNA chip at 65° C. for over 12 hours. The fluoresces intensity of the DNA chip was read with a scanner, and the ratio relative to the fluorescence intensity resulting from the absence of chemical substance was estimated as the following, which is shown in Tables 1 to 9: […]

## [Cl][Hg][Cl] [(3), HgCl2]
Yeast gene YAL039C
  The level of expressed mRNA in the presence of chemical substance/The level of expressed mRNA in the absence of chemical substance: 1.7
Yeast gene YBL022C
  The level of expressed mRNA in the presence of chemical substance/The level of expressed mRNA in the absence of chemical substance: 1.2
Yeast gene YBL030C
  The level of expressed mRNA in the presence of chemical substance/The level of expressed mRNA in the absence of chemical substance: 4.5
Yeast gene YBL038W
  The level of expressed mRNA in the presence of chemical substance/The level of expressed mRNA in the absence of chemical substance: 0.5
Yeast gene YBL099W
  The level of expressed mRNA in the presence of chemical substance/The level of expressed mRNA in the absence of chemical substance: 3.1
Yeast gene YBR003W
  The level of expressed mRNA in the presence of chemical substance/The level of expressed mRNA in the absence of chemical substance: 1.0
Yeast gene YBR044C
  The level of expressed mRNA in the presence of chemical substance/The level of expressed mRNA in the absence of chemical substance: 0.7
Yeast gene YBR091C
  The level of expressed mRNA in the presence of chemical substance/The level of expressed mRNA in the absence of chemical substance: 0.6
Yeast gene YBR122C
  The level of expressed mRNA in the presence of chemical substance/The level of expressed mRNA in the absence of chemical substance: 0.3
Yeast gene YBR185C
  The level of expressed mRNA in the presence of chemical substance/The level of expressed mRNA in the absence of chemical substance: 1.3
Yeast gene YBR221C
  The level of expressed mRNA in the presence of chemical substance/The level of expressed mRNA in the absence of chemical substance: 3.2
Yeast gene YBR251W
  The level of expressed mRNA in the presence of chemical substance/The level of expressed mRNA in the absence of chemical substance: 1.0
Yeast gene YBR282W
  The level of expressed mRNA in the presence of chemical substance/The level of expressed mRNA in the absence of chemical substance: 0.5
Yeast gene YCL057W
  The level of expressed mRNA in the presence of chemical substance/The level of expressed mRNA in the absence of chemical substance: 2.3
Yeast gene YCR046C
  The level of expressed mRNA in the presence of chemical substance/The level of expressed mRNA in the absence of chemical substance: 1.2
Yeast gene YCR083W
  The level of expressed mRNA in the presence of chemical substance/The level of expressed mRNA in the absence of chemical substance: 1.5
Yeast gene YDL067C
  The level of expressed mRNA in the presence of chemical substance/The level of expressed mRNA in the absence of chemical substance: 1.6
Yeast gene YDL181W
  The level of expressed mRNA in the presence of chemical substance/The level of expressed mRNA in the absence of chemical substance: 1.9
Yeast gene YDL198C
  The level of expressed mRNA in the presence of chemical substance/The level of expressed mRNA in the absence of chemical substance: 2.1
Yeast gene YDR079W
  The level of expressed mRNA in the presence of chemical substance/The level of expressed mRNA in the absence of chemical substance: 0.8
Yeast gene YDR178W
  The level of expressed mRNA in the presence of chemical substance/The level of expressed mRNA in the absence of chemical substance: 3.4
Yeast gene YDR231C
  The level of expressed mRNA in the presence of chemical substance/The level of expressed mRNA in the absence of chemical substance: 1.0
Yeast gene YDR258C
  The level of expressed mRNA in the presence of chemical substance/The level of expressed mRNA in the absence of chemical substance: 2.8
Yeast gene YDR298C
  The level of expressed mRNA in the presence of chemical substance/The level of expressed mRNA in the absence of chemical substance: 2.6
Yeast gene YDR347W
  The level of expressed mRNA in the presence of chemical substance/The level of expressed mRNA in the absence of chemical substance: 0.9
Yeast gene YDR377W
  The level of expressed mRNA in the presence of chemical substance/The level of expressed mRNA in the absence of chemical substance: 1.3
Yeast gene YDR529C
  The level of expressed mRNA in the presence of chemical substance/The level of expressed mRNA in the absence of chemical substance: 0.9
Yeast gene YEL024W
  The level of expressed mRNA in the presence of chemical substance/The level of expressed mRNA in the absence of chemical substance: 3.8
Yeast gene YEL039C
  The level of expressed mRNA in the presence of chemical substance/The level of expressed mRNA in the absence of chemical substance: 1.3
Yeast gene YER178W
  The level of expressed mRNA in the presence of chemical substance/The level of expressed mRNA in the absence of chemical substance: 3.6
Yeast gene YFL016C
  The level of expressed mRNA in the presence of chemical substance/The level of expressed mRNA in the absence of chemical substance: 1.6
Yeast gene YGL018C
  The level of expressed mRNA in the presence of chemical substance/The level of expressed mRNA in the absence of chemical substance: 1.8
Yeast gene YGL187C
  The level of expressed mRNA in the presence of chemical substance/The level of expressed mRNA in the absence of chemical substance: 1.6
Yeast gene YGL191W
  The level of expressed mRNA in the presence of chemical substance/The level of expressed mRNA in the absence of chemical substance: 1.4
Yeast gene YGR008C
  The level of expressed mRNA in the presence of chemical substance/The level of expressed mRNA in the absence of chemical substance: 1.7
Yeast gene YGR028W
  The level of expressed mRNA in the presence of chemical substance/The level of expressed mRNA in the absence of chemical substance: 1.0
Yeast gene YGR062C
  The level of expressed mRNA in the presence of chemical substance/The level of expressed mRNA in the absence of chemical substance: 0.7
Yeast gene YGR076C
  The level of expressed mRNA in the presence of chemical substance/The level of expressed mRNA in the absence of chemical substance: 0.6
Yeast gene YGR082W
  The level of expressed mRNA in the presence of chemical substance/The level of expressed mRNA in the absence of chemical substance: 2.2
Yeast gene YGR174C
  The level of expressed mRNA in the presence of chemical substance/The level of expressed mRNA in the absence of chemical substance: 0.6
Yeast gene YGR244C
  The level of expressed mRNA in the presence of chemical substance/The level of expressed mRNA in the absence of chemical substance: 1.6
Yeast gene YHR008C
  The level of expressed mRNA in the presence of chemical substance/The level of expressed mRNA in the absence of chemical substance: 4.8
Yeast gene YIL155C
  The level of expressed mRNA in the presence of chemical substance/The level of expressed mRNA in the absence of chemical substance: 1.4
Yeast gene YJL096W
  The level of expressed mRNA in the presence of chemical substance/The level of expressed mRNA in the absence of chemical substance: 0.8
Yeast gene YJL102W
  The level of expressed mRNA in the presence of chemical substance/The level of expressed mRNA in the absence of chemical substance: 0.4
Yeast gene YJL133W
  The level of expressed mRNA in the presence of chemical substance/The level of expressed mRNA in the absence of chemical substance: 2.0
Yeast gene YJL166W
  The level of expressed mRNA in the presence of chemical substance/The level of expressed mRNA in the absence of chemical substance: 1.6
Yeast gene YJL180C
  The level of expressed mRNA in the presence of chemical substance/The level of expressed mRNA in the absence of chemical substance: 1.1
Yeast gene YJR045C
  The level of expressed mRNA in the presence of chemical substance/The level of expressed mRNA in the absence of chemical substance: 3.9
Yeast gene YJR077C
  The level of expressed mRNA in the presence of chemical substance/The level of expressed mRNA in the absence of chemical substance: 2.0
